Source: publication PMC8521653 (ACS Medicinal Chemistry Letters, 2021)
Marks after values point to notes of the source that are not given here. Peptide text beside a SMILES is read from it. * marks the point of attachment. Cbz = O=C(OCc1ccccc1)*

Tests used:
[1] = system: PREP-catalyzed α-synuclein dimerization in N2A cells; conditions: luminescence signal percentage of DMSO control with SEM, ref Kilpeläinen et al.[16]; cited from earlier work
[2] = system: GFP-LC3B-RFP expressing HEK-293 cells; experiment: Autophagic flux, GFP signal in GFP-LC3B-RFP expressing HEK-293 cells; assay type: cell-based; conditions: for effect on autophagy (in words) / activity at 10 µM: 10 μM; for activity at 10 µM: Homo sapiens, HEK293, 24 h, GFP signal percentage of DMSO control with SEM, HEK-293 cells, read-out: autophagy at 10 μM (%)
[3] = system: PREP-catalyzed α-synuclein dimerization in N2A cells; experiment: αSyn dimerization, protein fragment complementation assay (PCA) in N2A cells; assay type: cell-based; conditions: for activity at 10 µM: Mus musculus, luminescence signal percentage of DMSO control with SEM, N2A cells; for increase of aSyn dimerization compared to DMSO control: 10 µM proteasome inhibitor, positive control, % increase
Experimental: The effect of the compounds on autophagy was determined by using GFP-LC3B-RFP expressing HEK-293 cells.[15],[34] The effect on αSyn dimerization was evaluated with a protein fragment complementation assay (PCA) by using N2A cells.[10],[15],[16] The increase in autophagic flux was measured as a decrease in GFP signal due to increased degradation of GFP-LC3B, and the decrease in αSyn dimerization was measured as a decrease in luminescence, both compared with DMSO (Table 1). […] Rapamycin and starvation are known to induce autophagy, lowering the fluorescence to 65–70% in our assays, and were therefore used as reference compounds for this. Test compounds were assayed at 10 μM concentration with 0.1% DMSO. A graphical representation of the mean values (± SEM) can be seen in the Supporting Information (Figure S1).
Measuring biological activity […]
α-Synuclein Dimerization. αSyn dimerization was assessed by using PCA, which was carried out as described previously in Kilpeläinen et al.1 In short, N2A cells were seeded on poly-L-lysine-coated 96-well plates (Isoplate™ white wall, PerkinElmer Life Sciences) at the density of 13 000 cells/well. 24 h post-plating, reporter plasmids were transfected with 100 ng of total plasmid DNA per well. N2A cells were transfected with 25 ng of both αSyn-Gluc1 and αSyn-Gluc2 and 50 ng mock-plasmid or non-tagged human PREP expression plasmid 50 ng/well. Lipofectamine 3000 (Thermo Fischer Scientific) was used as the transfection reagent. 100 µL normal growth medium was added to all wells at 24 h post-transfection. 48 hours post-transfection medium was changed to phenol red free DMEM without serum containing the tested compounds at 10 µM concentration, with 0,1% DMSO as vehicle control. Proteasome inhibitors lactacystin (AG Scientific) at 10 µM and MG-132 (Enzo Life Sciences) at 10 µM served as a positive control. The PCA signal was assessed by injecting 25 µL of native coelenterazine (Nanolight Technology) in phenol red free DMEM per well (final concentration 6 µM). The emitted luminescence was read using Varioskan LUX multimode microplate reader (Thermo Scientific). For each experimental condition, 4 replicate wells were used in each experiment, and at least 3 separate experiments for each treatment except for 15c which had 2 separate experiments. […]

[4] = target: T1, purified recombinant porcine PREP (Sus scrofa, UniProt P23687); experiment: Inhibition of the proteolytic activity of PREP, microplate assay with Suc-Gly-Pro-AMC substrate; assay type: biochemical; conditions: for IC50: Suc-Gly-Pro-AMC, 30 °C, pH 7.0, 95% CI in brackets; for PREP activity at 1 nM inhibitor concentration compared to control: remaining activity
T1 construct: made in house; host or cells: E. coli
T1 sequence (P23687 whole entry): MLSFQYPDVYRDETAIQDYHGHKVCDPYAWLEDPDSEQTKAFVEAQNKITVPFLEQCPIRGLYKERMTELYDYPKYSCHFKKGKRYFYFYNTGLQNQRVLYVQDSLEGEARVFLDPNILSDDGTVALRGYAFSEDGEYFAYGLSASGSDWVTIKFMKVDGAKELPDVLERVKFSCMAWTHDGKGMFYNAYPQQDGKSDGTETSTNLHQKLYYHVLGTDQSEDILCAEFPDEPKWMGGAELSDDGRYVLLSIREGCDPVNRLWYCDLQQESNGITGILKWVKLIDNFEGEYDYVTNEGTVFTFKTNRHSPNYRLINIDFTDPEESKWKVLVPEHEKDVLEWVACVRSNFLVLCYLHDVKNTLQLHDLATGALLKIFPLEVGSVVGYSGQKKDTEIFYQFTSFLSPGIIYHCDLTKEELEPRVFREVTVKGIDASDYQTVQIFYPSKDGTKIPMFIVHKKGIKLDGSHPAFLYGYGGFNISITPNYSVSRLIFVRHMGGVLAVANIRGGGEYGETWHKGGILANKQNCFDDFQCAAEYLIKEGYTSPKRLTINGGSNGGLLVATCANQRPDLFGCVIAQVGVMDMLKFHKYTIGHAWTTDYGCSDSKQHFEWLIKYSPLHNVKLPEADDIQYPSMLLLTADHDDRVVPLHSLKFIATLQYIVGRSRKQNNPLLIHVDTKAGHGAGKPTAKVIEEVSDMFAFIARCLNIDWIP
Experimental: Inhibition of the proteolytic activity (IC50) of PREP was determined using purified recombinant porcine PREP[25] as previously described.[16]
Measuring biological activity
Inhibitory Activity. The IC 50 values for compounds were determined in the microplate assay procedure described in Kilpeläinen et al.1 Porcine PREP cDNA was expressed in E.coli cells and purified as described in Venäläinen et al.3 The enzyme dilution was preincubated with 0.1 M sodium–potassium phosphate buffer (75 µL, pH 7.0) containing the compounds at desired concentrations in 30 °C for 30 min. The final concentration of the compounds in the assay mixture varied from 1 mM-1 nM and the final concentration of the enzyme was approximately 0.1 nM as measured by Bradford´s method. The enzyme reaction was carried out by adding 25 µL of 4 mM Suc-Gly-Pro-AMC substrate dissolved in 0.1 M sodium–potassium phosphate buffer (pH 7.0) into the assay mixture and incubating at 30° C for 60 min. The reaction was terminated by adding […] of 1 M sodium acetate buffer (pH 4.2). Formation of AMC was measured with Victor2 multilabel counter (PerkinElmer; excitation/emission 360 nm/ 460 nm), with a standard curve of 0.1-5 nM AMC in 0.1 M sodium–potassium phosphate buffer present. All activity measurements were made at least in triplicate. The inhibitory activities (percent of control) were plotted against the log concentration of the compound, and the IC50-value was determined by non-linear regression utilizing GraphPad Prism 7.0 software. […]

Row | SMILES | IC50 ([4]; recombinant porcine PREP) | effect on autophagy (in words) [2] | activity at 10 µM [2] | activity at 10 µM ([3]; 10 μM) | effect on αSyn dimerization (in words) ([3]; 10 μM) | also measured
1 | C[C@@H](C(=O)N1CCC[C@H]1c1nnn[nH]1)N(C)C(=O)CCCc1ccccc1 [Compound 1d] |  | no significant activity | 93% |  |  | α-synuclein dimerization at 10 μM (%) [1]: 75 ^e (7.3) %
2 | O=C(CCCc1ccccc1)N1CCC[C@H]1C(=O)N1CCC[C@H]1c1ccn[nH]1 [Compound 30a] |  | some minor activity in modulating autophagy | 89% | 99% | no activity on αSyn dimerization | IC50 value (in words) ([4]; recombinant porcine PREP): micromolar range
3 | Cn1nnc([C@@H]2CCCN2C(=O)[C@@H]2CCCN2C(=O)CCCc2ccccc2)n1 [Compound 19a] |  | capable of inducing autophagy | 85% | 101% | lost the activity on αSyn dimerization | 
4 | CC(=O)N[C@@H](CSC(=O)[C@]1([C@@H](O)C(C)C)NC(=O)[C@H](C)[C@@H]1O)C(=O)O [lactacystin, reference compound] |  |  |  |  |  | increase of aSyn dimerization compared to DMSO control ([3]; PCA): 32%
5 | CO/C1=C\C(C)=C\[C@@H](C)[C@@H](O)[C@@H](C)C/C(C)=C/C=C/[C@H](OC)[C@@H]([C@@H](C)[C@@H](O)[C@H](C)[C@@]2(O)C[C@@H](O)[C@H](C)[C@@H](C(C)C)O2)OC1=O [bafilomycin A1, reference compound] |  |  |  |  |  | increase in autophagic flux assay GFP signal compared to DMSO control ([2]; 20 nM, autophagy inhibitor control, % increase): 40%
6 | CC(C)C[C@@H](C=O)NC(=O)[C@H](CC(C)C)NC(=O)[C@H](CC(C)C)NC(=O)OCc1ccccc1 [MG-132, reference compound] (Cbz-Leu-Leu-Leu-aldehyde) |  |  |  |  |  | increase of aSyn dimerization compared to DMSO control ([3]; PCA): 29%
7 | C[C@H](NC(=O)CCCc1ccccc1)C(=O)N1CCC[C@H]1c1nnc[nH]1 [Compound 20b] |  |  | 91% | 110% |  | 
8 | CN(CC(=O)N1CCC[C@H]1c1nnn[nH]1)C(=O)CCc1ccccc1 [Compound 15c] |  |  | 95% | 95% |  | 
9 | CN(CC(=O)N1CCC[C@H]1c1nnn[nH]1)C(=O)CCCc1ccccc1 [Compound 1c] |  | some effect | 84% |  |  | α-synuclein dimerization at 10 μM (%) [1]: 75 ^e (7.7) %
10 | CO[C@H]1C[C@@H]2CC[C@@H](C)[C@@](O)(O2)C(=O)C(=O)N2CCCC[C@H]2C(=O)O[C@H]([C@H](C)C[C@@H]2CC[C@@H](O)[C@H](OC)C2)CC(=O)[C@H](C)/C=C(\C)[C@@H](O)[C@@H](OC)C(=O)[C@H](C)C[C@H](C)/C=C/C=C/C=C/1C [rapamycin, reference compound] |  |  |  |  |  | decrease in autophagic flux assay GFP signal compared to DMSO control ([2]; 0.5 µM, positive control, % decrease): 34%; fluorescence (GFP signal) relative to DMSO control ([2]; reference for autophagy induction, in our assays): 65–70%
11 | O=C(CCCc1ccccc1)N1CCC[C@H]1C(=O)N1CCC[C@H]1c1nnc[nH]1 [Compound 20a] |  | some minor activity in modulating autophagy | 87% | 96% | no activity on αSyn dimerization | 

The next lines start with results.

Row | IC50 ([4]; recombinant porcine PREP) | SMILES | effect on autophagy (in words) [2] | activity at 10 µM [2] | activity at 10 µM ([3]; 10 μM) | effect on αSyn dimerization (in words) ([3]; 10 μM) | also measured
12 | 1100 nM | O=C(CCCc1ccccc1)N1CCC[C@H]1C(=O)N1CCC[C@H]1c1cnn[nH]1 [Compound 25a] |  | 93% | 104% |  | 
13 | 770 nM | O=C(CCCCc1ccccc1)N1CCC[C@H]1C(=O)N1CCC[C@H]1c1nnn[nH]1 [Compound 16a] |  | 98% | 102% |  | 
14 | 44 nM | O=C(CCCc1ccccc1)N1CCC[C@H]1C(=O)N1CCC[C@H]1c1cnc[nH]1 [Compound 29a] | some minor activity in modulating autophagy | 92% | 98% | no activity on αSyn dimerization | 
15 | < 1 nM | O=C(c1ncc[nH]1)[C@@H]1CCCN1C(=O)[C@@H]1CCCN1C(=O)CCCc1ccccc1 [Compound 2a, reference compound] | lack of activity | 95% | 99% | lack of activity | PREP activity at 1 nM inhibitor concentration compared to control [4]: 43%
16 | 5000 nM | C[C@H](NC(=O)CCCCc1ccccc1)C(=O)N1CCC[C@H]1c1nnn[nH]1 [Compound 16b] |  | 94% | 92% |  | 
17 | 520000 nM | Cn1nnnc1[C@@H]1CCCN1C(=O)[C@@H]1CCCN1C(=O)CCCc1ccccc1 [Compound 18a] | capable of inducing autophagy | 88% | 105% | lost the activity on αSyn dimerization | 
18 | < 1 nM | O=C(CCCCc1ccccc1)N1CCC[C@H]1C(=O)N1CCC[C@H]1c1ncc[nH]1 [Compound 28a] |  | 102% | 110% |  | PREP activity at 1 nM inhibitor concentration compared to control [4]: 20%
19 | 94 nM | O=C(CCCc1cccs1)N1CCC[C@H]1C(=O)N1CCC[C@H]1c1nnn[nH]1 [Compound 17a] | slightly improved the activity in inducing autophagy | 87% | 87% | maintained some activity on αSyn dimerization | 
20 | 1000 nM | O=C(CCc1ccccc1)N1CCC[C@H]1C(=O)N1CCC[C@H]1c1nnn[nH]1 [Compound 15a] |  | 96% | 116% |  | 
21 | 1100 nM | C[C@H](NC(=O)CCCc1cccs1)C(=O)N1CCC[C@H]1c1nnn[nH]1 [Compound 17b] | inactive for both functions | 92% | 93% | inactive for both functions | 
22 | 3900 nM | C[C@H](NC(=O)CCc1ccccc1)C(=O)N1CCC[C@H]1c1nnn[nH]1 [Compound 15b] |  | 90% | 98% |  | 
23 | < 1 nM | O=C(CCCc1ccccc1)N1CCC[C@H]1C(=O)N1CCC[C@H]1c1ncc[nH]1 [Compound 27a] | no effect on autophagy | 96% | 72% |  | decrease of aSyn dimerization compared to DMSO control ([3]; 10 μM, PCA, Figure S1A, % decrease): 28%; PREP activity at 1 nM inhibitor concentration compared to control [4]: 25%
24 | < 1 nM | O=C(CCc1ccccc1)N1CCC[C@H]1C(=O)N1CCC[C@H]1c1ncc[nH]1 [Compound 26a] |  | 102% | 89% | still retaining some modulating activity | PREP activity at 1 nM inhibitor concentration compared to control [4]: 41%
25 | 2100 nM | C[C@H](NC(=O)CCCc1ccccc1)C(=O)N1CCC[C@H]1c1ncc[nH]1 [Compound 27b] | did not retain either of the activities | 106% | 110% | did not retain either of the activities | 
